According to patent US6664442B2, “Selecting compounds to reduce inflammation associated with Alzheimer's disease” (Elan Pharmaceuticals, Inc., priority 2000, dated 2003):

Key:
Type in all cases: in vivo, mouse
[1] = system: Igk; assay: mRNA expression of Igk in PDAPP mice immunized with Aβ1-42 or a fragment, quantitative RT-PCR; settings: tissue not given
Description: (§1) RNA was isolated from brain tissues using the S.N.A.P.™ Total RNA Isolation Kit (Invitrogen, Carlsbad, Calif.) according to manufacturer's instructions, with the following modifications: the tissue was homogenized for 20 seconds using a rotor-stator homogenizer (Fisher Scientific). The DNA digestion step was repeated a second time following isopropanol precipitation.
(§2) Quantitative PCR assays were run on a Perkin Elmer 7700 Sequencer using methods and materials provided by Perkin Elmer (Applied Biosystems Division, Foster City, Calif.). Primers and fluorescent probes were obtained from Perkin Elmer; the sequences and concentrations of primers and probes used for the various assays are listed in Table 1 below. PCR reactions were set up using approximately 300 nM concentrations of each of the forward and reverse primers, 100 nM probe and RNA extracted from the tissue of interest (20 ng). Each reaction also included a standard RNA for comparison. Data were normalized to total RNA or to GAPDH. Standard curves were run using standard RNA prepared from the appropriate tissue (e.g., brain total RNA). Sample results were normalized to the amount of RNA measured by OD and or control message (e.g., GAPDH).
(§3) Thus, the efficacy of Aβ-treatment can be assessed by comparing the mRNA expression of such markers.

[2] = system: IFN-γ; assay: mRNA expression of IFN-γ in PDAPP mice immunized with Aβ1-42 or a fragment, quantitative RT-PCR; settings: tissue not given
Description: as §1, §2, §3

[3] = system: CD4; assay: mRNA expression of CD4 in PDAPP mice immunized with Aβ1-42 or a fragment, quantitative RT-PCR; settings: tissue not given
Description: as §1, §2, §3

[4] = system: MCP-1; assay: mRNA expression of MCP-1 in PDAPP mice immunized with Aβ1-42 or a fragment, quantitative RT-PCR; settings: tissue not given
Description: as §1, §2, §3

[5] = system: IgG-1; assay: mRNA expression of IgG-1 in PDAPP mice immunized with Aβ1-42 or a fragment, quantitative RT-PCR; settings: Fr cortex
Description: as §1, §2, §3

Aβ1-5: fragment of Aβ1-42 used to immunize PDAPP mice (DAEFR; Amyloid-beta protein 42; UniProt P05067 672-676, looked up, fragment)
Igk mRNA, ratio of Aβ-treated mice to non-Aβ-treated mice [1]: 2.10X
IFN-γ mRNA, ratio of Aβ-treated mice to non-Aβ-treated mice [2]: .8X
CD4 mRNA, ratio of Aβ-treated mice to non-Aβ-treated mice [3]: 0.99X
MCP-1 mRNA, ratio of Aβ-treated mice to non-Aβ-treated mice [4]: 0.75X

Aβ1-42: amyloid β-peptide 1-42 used to immunize PDAPP mice
IgG-1 mRNA, ratio of Aβ-treated mice to non-Aβ-treated mice [5]: 300X
